Active and inactive are the calls of the source. The calls are words filed in the database; no cut-off is given here.
Key:
HepG2 [1] = assay: Induction of intracellular NO release in human HepG2 cells at 1.5 to 6 uM after 24 hrs by DAF-FM DA staining-based flow cytometry; assay type: functional, cell-based
HepG2 [2] = assay: Induction of intracellular NO release in human HepG2 cells after 24 hrs by DAF-FM DA staining-based flow cytometry; assay type: functional, cell-based
HepG2 [3] = assay: Cytotoxicity against human HepG2 cells after 24 hrs by MTT assay; assay type: functional, cell-based
HepG2 [4] = assay: Induction of apoptosis in human HepG2 cells assessed as increase in ERK phosphorylation after 24 hrs by Western blotting analysis; assay type: functional, cell-based
Homo sapiens = organism: Homo sapiens; assay: Ratio of Kcat to Km for human GSTalpha
HepG2 [5] = assay: Induction of apoptosis in human HepG2 cells at 3 uM after 24 hrs by Western blotting analysis in presence of carboxy-PTIO; assay type: functional, cell-based
H22 [6] = assay: Antitumor activity against mouse H22 cells […] in mouse assessed as reduction in tumor growth at 38.3 umol/kg, ip after 14 days; assay type: functional, organism-based
H22 [7] = assay: Antitumor activity against mouse H22 cells […] in ip dosed mouse assessed as reduction in tumor volume after 14 days relative to vehicle-treated control; assay type: functional, organism-based
HepG2 [8] = assay: Induction of apoptosis in human HepG2 cells assessed as increase in JNK phosphorylation at 3 uM by Western blotting analysis; assay type: functional, cell-based; conditions: TDE = time-dependent effect
HepG2 [9] = assay: Cell cycle arrest in human HepG2 cells assessed as decrease of cells at G0/G1 phase after 24 hrs by flow cytometry; assay type: functional, cell-based
HepG2 [10] = assay: Induction of apoptosis in human HepG2 cells assessed as incerase in Bax expression at 6 uM by Western blotting analysis; assay type: functional, cell-based; conditions: TDE = time-dependent effect
HepG2 [11] = assay: Induction of apoptosis in human HepG2 cells assessed as increase in p38 phosphorylation after 24 hrs by Western blotting analysis; assay type: functional, cell-based
HepG2 [12] = assay: Induction of intracellular NO release in human HepG2 cells at 1.5 to 6 uM after 24 hrs by Griess assay in presence of carboxy-PTIO; assay type: functional, cell-based
HepG2 [13] = assay: Induction of apoptosis in human HepG2 cells assessed as reduction in Bcl2 expression after 24 hrs by Western blotting analysis; assay type: functional, cell-based
HepG2 [14] = assay: Induction of intracellular NO release in human HepG2 cells at 30 uM after 6 hrs by Griess assay; assay type: functional, cell-based
HepG2 [15] = assay: Induction of apoptosis in human HepG2 cells after 24 hrs by FITC-Annexin V/PI staining-based flow cytometry; assay type: functional, cell-based
H22 [16] = assay: Antitumor activity against mouse H22 cells […] in ip dosed mouse assessed as reduction in tumor weight after 14 days relative to vehicle-treated control; assay type: functional, organism-based
H22 [17] = assay: Antitumor activity against mouse H22 cells […] in mouse assessed as reduction in tumor growth at 153.8 umol/kg, ip after 14 days; assay type: functional, organism-based
HepG2 [18] = assay: Cell cycle arrest in human HepG2 cells assessed as accumulation at G2/M phase after 24 hrs by flow cytometry; assay type: functional, cell-based
HepG2 [19] = assay: Induction of apoptosis in human HepG2 cells assessed as incerase in Cyt c expression at 6 uM by Western blotting analysis; assay type: functional, cell-based; conditions: TDE = time-dependent effect
HepG2 [20] = assay: Induction of apoptosis in human HepG2 cells assessed as incerase in Bax expression after 24 hrs by Western blotting analysis; assay type: functional, cell-based
HepG2 [21] = assay: Induction of apoptosis in human HepG2 cells assessed as ROS generation at 1.5 to 6 uM after 24 hrs by flow cytometry in presence of Tiron; assay type: functional, cell-based
HepG2 [22] = assay: Induction of intracellular NO release in human HepG2 cells at 6 uM by Griess assay; assay type: functional, cell-based; conditions: TDE = time-dependent effect
HepG2 [23] = assay: Induction of apoptosis in human HepG2 cells at 3 uM after 24 hrs by Western blotting analysis in presence of Tiron; assay type: functional, cell-based
HepG2 [24] = assay: Induction of apoptosis in human HepG2 cells assessed as incerase in Caspase 9 expression at 6 uM by Western blotting analysis; assay type: functional, cell-based; conditions: TDE = time-dependent effect
HepG2 [25] = assay: Induction of apoptosis in human HepG2 cells assessed as incerase in Caspase 3 expression at 6 uM by Western blotting analysis; assay type: functional, cell-based; conditions: TDE = time-dependent effect
HepG2 [26] = assay: Cytotoxicity against human HepG2 cells at 10 to 100 uM after 24 hrs by MTT assay; assay type: functional, cell-based
HepG2 [27] = assay: Induction of apoptosis in human HepG2 cells assessed as increase in ERK phosphorylation at 3 uM by Western blotting analysis; assay type: functional, cell-based; conditions: TDE = time-dependent effect
HepG2 [28] = assay: Induction of intracellular NO release in human HepG2 cells at 1.5 to 6 uM after 24 hrs by Griess assay in presence of etacrynic acid; assay type: functional, cell-based
HepG2 [29] = assay: Induction of apoptosis in human HepG2 cells assessed as incerase in Caspase 3 expression after 24 hrs by Western blotting analysis; assay type: functional, cell-based
HepG2 [30] = assay: Induction of apoptosis in human HepG2 cells assessed as loss of mitochondrial membrane potential after 24 hrs by JC-1 staining-based flow cytometry; assay type: functional, cell-based
HepG2 [31] = assay: Induction of apoptosis in human HepG2 cells assessed as loss of mitochondrial membrane potential at 1.5 to 6 uM after 24 hrs by JC-1 staining-based flow cytometry; assay type: functional, cell-based
HepG2 [32] = assay: Induction of apoptosis in human HepG2 cells assessed as incerase in Caspase 9 expression after 24 hrs by Western blotting analysis; assay type: functional, cell-based
HepG2 [33] = assay: Cytotoxicity against human HepG2 cells at 5 t0 35 uM by MTT assay; assay type: functional, cell-based; conditions: TDE = time-dependent effect
HepG2 [34] = assay: Induction of intracellular NO release in human HepG2 cells after 6 hrs by Griess assay; assay type: functional, cell-based
L02 [35] = assay: Induction of intracellular NO release in human LO2 cells at 6 uM by Griess assay; assay type: functional, cell-based; conditions: TDE = time-dependent effect
HepG2 [36] = assay: Induction of apoptosis in human HepG2 cells at 3 uM after 24 hrs by Western blotting analysis in presence of EA; assay type: functional, cell-based
L02 [37] = assay: Induction of intracellular NO release in human LO2 cells after 6 hrs by Griess assay; assay type: functional, cell-based
HepG2 [38] = assay: Induction of apoptosis in human HepG2 cells assessed as incerase in Cyt c expression after 24 hrs by Western blotting analysis; assay type: functional, cell-based
HepG2 [39] = assay: Induction of intracellular NO release in human HepG2 cells at 1.5 to 6 uM after 24 hrs by Griess assay in presence of hemoglobin; assay type: functional, cell-based
HepG2 [40] = assay: Induction of apoptosis in human HepG2 cells assessed as increase in p38 phosphorylation at 3 uM by Western blotting analysis; assay type: functional, cell-based; conditions: TDE = time-dependent effect
HepG2 [41] = assay: Induction of apoptosis in human HepG2 cells assessed as reduction in Bcl2 expression at 6 uM by Western blotting analysis; assay type: functional, cell-based; conditions: TDE = time-dependent effect
HepG2 [42] = assay: Induction of apoptosis in human HepG2 cells assessed as increase in JNK phosphorylation after 24 hrs by Western blotting analysis; assay type: functional, cell-based
HepG2 [43] = assay: Cytotoxicity against human HepG2 cells assessed as cell viability at 3 uM after 24 hrs by MTT assay in presence of hemoglobin; assay type: functional, cell-based
HepG2 [44] = assay: Induction of apoptosis in human HepG2 cells assessed as increase in ROS generation at 1.5 to 6 uM after 24 hrs by flow cytometry; assay type: functional, cell-based

With `CN(CCO)/[N+]([O-])=N\Oc1cc(N2CCN(CC(=O)O[C@H]3CC[C@]4(C)[C@H]5CC=C6[C@@H]7CC(C)(C)CC[C@]7(C(=O)O[C@@H]7O[C@H](CO)[C@H](O)[C@H](O)[C@H]7O)CC[C@@]6(C)[C@]5(C)CC[C@H]4C3(C)C)CC2)c([N+](=O)[O-])cc1[N+](=O)[O-]` the Activity (HepG2 [1]) was “Active”, the Activity (HepG2 [2]) was “Dose-dependent effect” and the Activity (HepG2 [3]) was “Dose-dependent effect”. The Activity (HepG2 [4]) was “Dose-dependent effect”, the kcat/Km (Homo sapiens) was 2730 M⁻¹ s⁻¹ and the Activity (HepG2 [5]) was “Active”. The Activity (H22 [6]) was “Active”, the Activity (H22 [7]) was “Dose-dependent effect” and the Activity (HepG2 [8]) was “tde”. For the same compound, the Activity (HepG2 [9]) was “Dose-dependent effect”, the Activity (HepG2 [10]) was “tde” and the Activity (HepG2 [11]) was “Dose-dependent effect”. For the same compound, the Activity (HepG2 [12]) was “Active”, the Activity (HepG2 [13]) was “Dose-dependent effect” and the Activity (HepG2 [14]) was “Active”. For the same compound, the Activity (HepG2 [15]) was “Dose-dependent effect”, the Activity (H22 [16]) was “Dose-dependent effect” and the Activity (H22 [17]) was “Active”. For the same compound, the Activity (HepG2 [18]) was “Dose-dependent effect”, the Activity (HepG2 [19]) was “tde” and the Activity (HepG2 [20]) was “Dose-dependent effect”. For the same compound, the Activity (HepG2 [21]) was “Active”, the Activity (HepG2 [22]) was “tde” and the Activity (HepG2 [23]) was “Active”. For the same compound, the Activity (HepG2 [24]) was “tde”, the Activity (HepG2 [25]) was “tde” and the Activity (HepG2 [26]) was “Active”. For the same compound, the Activity (HepG2 [27]) was “tde”, the Activity (HepG2 [28]) was “Active” and the Activity (HepG2 [29]) was “Dose-dependent effect”. The Activity (HepG2 [30]) was “Dose-dependent effect”, the Activity (HepG2 [31]) was “Active” and the Activity (HepG2 [32]) was “Dose-dependent effect”. For the same compound, the Activity (HepG2 [33]) was “tde”, the Activity (HepG2 [34]) was “Dose-dependent effect” and the Activity (L02 [35]) was “tde”. The Activity (HepG2 [36]) was “Active”, the Activity (L02 [37]) was “Dose-dependent effect” and the Activity (HepG2 [38]) was “Dose-dependent effect”. The Activity (HepG2 [39]) was “Active”, the Activity (HepG2 [40]) was “tde” and the Activity (HepG2 [41]) was “tde”. For the same compound, the Activity (HepG2 [42]) was “Dose-dependent effect”, the Activity (HepG2 [43]) was “Active” and the Activity (HepG2 [44]) was “Active”.
